For test [1], the system named is Pseudomonas aeruginosa. Nature of the test: Antibacterial activity against Pseudomonas aeruginosa ATCC 27853 after 24 hrs by broth microdilution method. It is filed as functional. Conditions: ATCC 27853, 24 h.
For test [2], the system named is Pseudomonas aeruginosa. Nature of the test: Potency index, ratio of ciprofloxacin MIC to test compound MIC for Pseudomonas aeruginosa ATCC 27853 after 24 hrs by broth microdilution method. It is filed as functional. Background: Dilution methods test growth across graded concentrations, often in twofold steps.
The test system of test [3] is Listeria monocytogenes. Description: Potency index, ratio of ciprofloxacin MIC to test compound MIC for Listeria monocytogenes ATCC 35152 after 24 hrs by broth microdilution method. It counts as functional.
Test [4] deals with Listeria monocytogenes. Description: Antibacterial activity against Listeria monocytogenes ATCC 35152 after 24 hrs by broth microdilution method. It is filed as functional. Conditions: ATCC 35152, 24 h.
The test system of a further test is Plasmodium falciparum. Nature of the test: Antiplasmodial activity against Plasmodium falciparum. It counts as functional, organism-based.
Test [5] has as its system Escherichia coli. Description: Antibacterial activity against Escherichia coli incubated for 18 hrs post 30 mins pre-diffusion by disk diffusion method. It is filed as functional.
Test [6] concerns Bacillus subtilis. Description: Antibacterial activity against Bacillus subtilis incubated for 18 hrs post 30 mins pre-diffusion by disk diffusion method. It counts as functional. For orientation: A growth-free zone around the sample is the usual read-out of agar diffusion tests.
In a further test the test system is Listeria innocua. Nature of the test: Antibacterial activity against Listeria innocua incubated for 18 hrs post 30 mins pre-diffusion by disk diffusion method. It is filed as functional.
The test system of the next test is Micrococcus luteus. Description: Antibacterial activity against Micrococcus luteus incubated for 18 hrs post 30 mins pre-diffusion by disk diffusion method. It counts as functional.
The test system of test [7] is Bacillus subtilis. Nature of the test: Antibacterial activity against Bacillus subtilis assessed as zone of inhibition. It counts as functional.
Test [8] relates to Staphylococcus aureus. Nature of the test: Antibacterial activity against Staphylococcus aureus assessed as zone of inhibition. It is filed as functional.
The next test has as its system Salmonella typhimurium. Description: Antibacterial activity against Salmonella typhimurium assessed as zone of inhibition. It counts as functional, Salmonella enterica subsp. enterica serovar Typhimurium.
Test [9] deals with Escherichia coli. Nature of the test: Antibacterial activity against Escherichia coli assessed as zone of inhibition. It counts as functional.
Another test has as its system Bacillus anthracis. Nature of the test: Antibacterial activity against Bacillus anthracis incubated for 18 hrs post 30 mins pre-diffusion by disk diffusion method. It counts as functional.
Test [10] relates to Staphylococcus aureus. Nature of the test: Antibacterial activity against methicillin-resistant Staphylococcus aureus incubated for 18 hrs post 30 mins pre-diffusion by disk diffusion method. It is filed as functional.
The subject of a further test is Aspergillus niger. Description: Antifungal activity against Aspergillus niger. It counts as functional.
A further test concerns Streptococcus pneumoniae. Description: Antibacterial activity against Streptococcus pneumoniae. It is filed as functional.
In the next test the test system is Candida albicans. Nature of the test: Antifungal activity against Candida albicans. It counts as functional.
The subject of test [11] is Staphylococcus aureus. Description: Antibacterial activity against Staphylococcus aureus. It counts as functional.
Test [12] concerns Bacillus subtilis. Nature of the test: Antibacterial activity against Bacillus subtilis. It is filed as functional.
For another test, the system named is Clostridium tetani. Description: Antibacterial activity against Clostridium tetani. It is filed as functional.
The next test concerns Trichophyton rubrum. Description: Antifungal activity against Trichophyton rubrum. It is filed as functional.
For test [13], the system named is Escherichia coli. Description: Antibacterial activity against Escherichia coli. It counts as functional.

The results in this text go back to ChEMBL document CHEMBL4346715, “Antibacterial activity study of 1,2,4-triazole derivatives” (Eur J Med Chem, 2019).

Converted amounts (≈) assume the structure as drawn.

By MIC is commonly meant the least concentration at which growth counts as inhibited. Read a high MIC as a less susceptible organism. On to `Cc1nc(-c2ccccc2)sc1-c1nnc(S)n1/N=C/c1ccc([N+](=O)[O-])cc1`, for which the MIC in the test with Pseudomonas aeruginosa [1] and with Listeria monocytogenes [4] was 1.95 µg/mL (≈ 4.62 µM) in each case. For the same molecule, the Ratio with Pseudomonas aeruginosa [2] and in the test on Listeria monocytogenes [3] was 2 throughout.
A word on the IC50: it is the concentration that inhibits the measured activity by half. Low values mean greater potency in that assay, high ones weaker potency in that assay. With `C=C[C@H]1CN2CC[C@H]1C[C@H]2[C@H](O)c1ccnc2ccc(OC)cc12` [QUININE], 0.268 µg/mL (≈ 0.826 µM) corresponded to half-maximal inhibition in the test with Plasmodium falciparum (IC50).
For `CC(C)N(Cc1ncn(C)n1)Cc1ncn(C)n1`, the MIC in the test on Escherichia coli [5], against Bacillus subtilis [6], against Listeria innocua and in the test with Micrococcus luteus was 7 to 15 µg/mL (≈ 28.1 to 60.2 µM) each time.
As to `S=c1[nH]nc(-c2ccc(Cl)cc2)n1-n1c(-c2ccc(Br)cc2)nc(-c2ccccc2)c1-c1ccccc1`, the “inhibition zone (IZ)” value with Bacillus subtilis [7], with Staphylococcus aureus [8], in the test with Salmonella typhimurium and in the test with Escherichia coli [9] was 10 - 18 mm throughout.
For `CN(C)[C@@H]1C(O)=C(C(N)=O)C(=O)[C@@]2(O)C(O)=C3C(=O)c4c(O)cccc4[C@@](C)(O)[C@H]3C[C@@H]12` [TETRACYCLINE], the MIC in the test on Escherichia coli [5] was 20 to 21 µg/mL (≈ 45 to 47.3 µM); in the test with Bacillus subtilis [6] it was 20 to 21 µg/mL (≈ 45 to 47.3 µM); in the test with Listeria innocua, 20 to 21 µg/mL (≈ 45 to 47.3 µM); against Bacillus anthracis, 31 to 1000 µg/mL (≈ 69.8 to 2250 µM); in the test on Staphylococcus aureus [10] it was 31 to 1000 µg/mL (≈ 69.8 to 2250 µM); against Micrococcus luteus it was 20 to 21 µg/mL (≈ 45 to 47.3 µM). For the same molecule, the “inhibition zone (IZ)” value in the test with Bacillus subtilis [7], with Staphylococcus aureus [8], in the test with Salmonella typhimurium and in the test on Escherichia coli [9] was 14 - 17 mm in each case.
For `Fc1ccc(-c2nc(-c3ccccc3)c(-c3ccccc3)n2-n2c(-c3ccc(Cl)cc3)n[nH]c2=S)cc1`, the “inhibition zone (IZ)” value in the test with Bacillus subtilis [7], in the test with Staphylococcus aureus [8], with Salmonella typhimurium and with Escherichia coli [9] was 10 - 18 mm throughout.
As for `Cc1nc(-c2ccccc2)sc1-c1nnc(S)n1/N=C/c1ccc(N(C)C)cc1`, the MIC against Pseudomonas aeruginosa [1] and with Listeria monocytogenes [4] was 1.95 µg/mL (≈ 4.64 µM) throughout. Moreover, the Ratio with Pseudomonas aeruginosa [2] and with Listeria monocytogenes [3] was 2 throughout.
For `Cc1nc(-c2ccccc2)sc1-c1nnc(S)n1/N=C/c1cccs1`, the MIC against Pseudomonas aeruginosa [1] and in the test on Listeria monocytogenes [4] was 1.95 µg/mL (≈ 5.08 µM) throughout. Moreover, the Ratio with Pseudomonas aeruginosa [2] and in the test on Listeria monocytogenes [3] was 2 in each case.
In the case of `COC(=O)c1ncn(CN(Cn2cnc(C(=O)OC)n2)C(C)C)n1`, the MIC against Escherichia coli [5], against Bacillus subtilis [6], against Listeria innocua and in the test on Micrococcus luteus was 7 to 15 µg/mL (≈ 20.8 to 44.5 µM) in each case.
For `COc1ccccc1/C=N/n1c(S)nnc1-c1sc(-c2ccccc2)nc1C`, the MIC with Pseudomonas aeruginosa [1] and against Listeria monocytogenes [4] was 1.95 µg/mL (≈ 4.78 µM) throughout. Besides, the Ratio in the test with Pseudomonas aeruginosa [2] and in the test with Listeria monocytogenes [3] was 2 in each case.
`Cc1nn(-c2ccccc2)c(-n2cncn2)c1-c1cc(-c2ccc(F)cc2)nc2nc3ccccc3n12` returned an IC50 in the test on Plasmodium falciparum of 0.041 µg/mL (≈ 0.0843 µM). In addition, the MIC in the test on Aspergillus niger was 100 to 500 µg/mL (≈ 206 to 1030 µM); against Streptococcus pneumoniae it was 62.5 to 125 µg/mL (≈ 128 to 257 µM); with Candida albicans, 100 to 500 µg/mL (≈ 206 to 1030 µM); against Staphylococcus aureus [11], 62.5 to 125 µg/mL (≈ 128 to 257 µM); against Bacillus subtilis [12] it was 62.5 to 125 µg/mL (≈ 128 to 257 µM); against Clostridium tetani it was 62.5 to 125 µg/mL (≈ 128 to 257 µM). For the same molecule, the MIC against Trichophyton rubrum was in the range of 100 to 500 µg/mL (≈ 206 to 1030 µM); in the test on Escherichia coli [13] it was 62.5 to 125 µg/mL (≈ 128 to 257 µM).
Take `COC(=O)c1ncn(CN(CCCO)Cn2cnc(C(=O)OC)n2)n1`: the MIC against Escherichia coli [5], against Bacillus subtilis [6], with Listeria innocua and against Micrococcus luteus was 7 to 15 µg/mL (≈ 19.8 to 42.5 µM) throughout.
Take `COc1cccc(/C=N/n2c(S)nnc2-c2sc(-c3ccccc3)nc2C)c1`: the MIC against Pseudomonas aeruginosa [1] and against Listeria monocytogenes [4] was 1.95 µg/mL (≈ 4.78 µM) throughout. The Ratio in the test with Pseudomonas aeruginosa [2] and with Listeria monocytogenes [3] was 2 in each case.
For `Cn1cnc(CNCc2ncn(C)n2)n1`, the minimum inhibitory concentration (MIC) in the test on Escherichia coli [5], in the test on Bacillus subtilis [6], against Listeria innocua and against Micrococcus luteus was 7 to 15 µg/mL (≈ 33.8 to 72.4 µM) throughout.
With `N#Cc1ccc(-c2nc(-c3ccccc3)c(-c3ccccc3)n2-n2c(-c3ccc(Cl)cc3)n[nH]c2=S)cc1`, the “inhibition zone (IZ)” value in the test with Bacillus subtilis [7], in the test with Staphylococcus aureus [8], in the test with Salmonella typhimurium and with Escherichia coli [9] was 10 - 18 mm throughout.
